Results: US9206124B2, “Treatment of drug-resistant cancer with 2-aryl-2-(3-indolyl) acetohydroxamates” (New Mexico Technical Research Foundation, priority 2013, dated 2015)
Like-named read-outs stand apart in the source and are kept apart here.

Legend:
[1] = system: MCF-7 breast adenocarcinoma cells; test: MTT antiproliferative assay, MCF-7; type: cell-based; settings: Homo sapiens, ± SD, read-out: cell viability GI50, MCF7
Description: (§1) This finding led to an exploration of the SAR analyses by synthesizing the first generation compounds 3 containing diverse substituents at different positions in the 2-aryl-2-(3-indolyl)acetohydroxamate skeleton and testing this series for in vitro growth inhibition using the MTT colorimetric assay against two cell lines, human HeLa cervical and MCF-7 breast adenocarcinomas (Table 1). It emerged from these experiments that the substitution on the benzene ring of the indole moiety (R^2≠H) was not tolerated (e.g., 3abfa and 3acfa), whereas the nitrogen could be derivatized (R^1≠H) with only a small activity drop (e.g., 3bafa vs 3aafa).
(§2) Human cancer cell lines were obtained from the American Type Culture Collection (ATCC, Manassas, Va., USA), the European Collection of Cell Culture (ECACC, Salisbury, UK) and the Deutsche Sammlung von Mikroorganismen and Zellkulturen (DSMZ, Braunschweig, Germany). Human cervical adenocarcinoma HeLa cells were cultured in DMEM supplemented with 10% fetal bovine serum (FBS). Human mammary carcinoma MCF-7 cells were cultured in RPMI supplemented with 10% FBS. The U87 cells (ATCC HTB-14) were cultured in DMEM culture medium, while the A549 cells (DSMZ ACC107) were cultured in RPMI culture medium supplemented with 10% heat-inactivated FBS. The glioblastoma multiforme Hs683 (ATCC HTB-138) and the T98G (ATCC CRL-1690) cell lines were cultivated in DMEM supplemented with 10% FBS. The Human uterine sarcoma MES-SA and MES-SA/Dx5 cells were cultured in RPMI-1640 medium supplemented with 10% FBS with MES SA/Dx5 maintained in the presence of 500 nM Doxorubicin (Sigma). SKMEL-28 cells (ATCC HTB72) and U373 glioblastoma cells (ECACC 08061901) were cultured in RPMI culture medium supplemented with 10% heat-inactivated FBS. Cell culture media were supplemented with 4 mM glutamine (Lonza code BE17-605E), 100 μg/mL gentamicin (Lonza code 17-5182), and penicillin-streptomycin (200 units/ml and 200 μg/ml) (Lonza code 17-602E). Neurosphere culture GBM 031810 was established using known methods and maintained in Neurobasal medium (Invitrogen Carlsbad, Calif.) with B27 supplement (20 ul/ml; Invitrogen), Glutamax (10 ul/ml; Invitrogen), fibroblast growth factor-2 (20 ng/ml; Peprotech, Rocky Hill, N.J., USA), epidermal growth factor (20 ng/ml; Peprotech), heparin (32 IE/ml; Sigma Aldrich, St. Louis, Mo.), and penicillin-streptomycin (1×, Invitrogen). Growth factors and heparin were renewed twice weekly. All cell lines were cultured in T25 flasks, maintained and grown at 37° C., 95% humidity, 5% CO2.
(§3) Antiproliferative properties of the synthesized compounds were evaluated by the MTT assay. All compounds were dissolved in DMSO at a concentration of either 100 mM or 50 mM prior to cell treatment. The cells were trypsinized and seeded at 4×10^3 cells per well into 96-well plates. The cells were grown for 24 h, treated with compounds at concentrations ranging from 0.001 to 100 μM and incubated for 48 h in 200 μL media. 20 μL of MTT reagent in serum free medium (5 mg/mL) was added to each well and incubated further for 2 h. Media was removed and the resulting formazan crystals were re-solubilized in 200 μL of DMSO. A490 was measured using a Molecular Devices Thermomax plate reader. The experiments were performed in quadruplicate and repeated at least twice for each compound per cell line. Cells treated with 0.1% DMSO were used as a negative control; 1 μM phenyl arsine oxide (PAO) was used as a positive control.

[2] = system: HeLa cervical adenocarcinoma cells; test: MTT antiproliferative assay, HeLa; type: cell-based; settings: Homo sapiens, ± SD, read-out: cell viability GI50, HeLa
Description: as §1, §2, §3

[3] = system: HeLa cervical and MCF-7 breast adenocarcinomas; test: In vitro growth inhibition (MTT); type: cell-based, human; settings: HeLa and MCF-7
Description: as §1, §3

[4] = system: A549 non-small-cell-lung cancer cells; test: MTT antiproliferative assay, A549; type: cell-based, human; settings: FIG. 3; concentrations up to 100 μM
Procedure: (§4) As part of the ongoing efforts aimed at identification of compounds active against cancer cells displaying resistance to proapoptotic agents, the selected 2-aryl-2-(3-indolyl)-acetohydroxamates were evaluated for in vitro growth inhibition against a panel of additional cancer cell lines including those resistant to various proapoptotic stimuli, such as human T98G and U87 glioblastoma and human A549 non-small-cell-lung cancer (NSCLC), as well as an apoptosis-sensitive tumor model, such as human Hs683 anaplastic oligodendroglioma, used as a reference. The data reveal that for the most part these compounds retain the single-digit antiproliferatve GI50 values in this challenging cancer cell panel.
as §2, §3

U87 glioblastoma cells = test: MTT antiproliferative assay, U87; type: cell-based, human; settings: FIG. 3; concentrations up to 100 μM
Procedure: as §4, §2, §3

[5] = system: MES-SA uterine sarcoma cells; test: MTT antiproliferative assay, MES-SA; type: cell-based; settings: Homo sapiens, 48 h treatment, ± SD, read-out: GI50 in vitro, MES-SA
Procedure: Compared with the intrinsic drug resistance, as described above for such cancers as glioblastoma and melanoma, a large variety of tumors can also develop resistance to anticancer drugs resulting in MDR as explained previously. To assess whether the hydroxamates can overcome this resistance mechanism, selected hydroxamates were tested against MDR cells (Table 4). The MDR uterine sarcoma cell line MES-SA/Dx5 was utilized for this experiment. This cell line was established from the parent uterine sarcoma MES-SA, grown in the presence of increasing concentrations of doxorubicin and known to be resistant to a number of P-gp substrates. […] In contrast, there was only a small variation in the sensitivities of the two cell lines towards the hydroxamates indicating their potential to overcome clinical multi-drug resistance.
as §2, §3

[6] = system: MES-SA/Dx5 MDR uterine sarcoma cells; test: MTT antiproliferative assay, MDR MES-SA/Dx5; type: cell-based, human
Procedure: Compared with the intrinsic drug resistance, as described above for such cancers as glioblastoma and melanoma, a large variety of tumors can also develop resistance to anticancer drugs resulting in MDR as explained previously. To assess whether the hydroxamates can overcome this resistance mechanism, selected hydroxamates were tested against MDR cells (Table 4). The MDR uterine sarcoma cell line MES-SA/Dx5 was utilized for this experiment. This cell line was established from the parent uterine sarcoma MES-SA, grown in the presence of increasing concentrations of doxorubicin and known to be resistant to a number of P-gp substrates.
as §2, §3
Selection of the MES-SA/Dx5 cell line was done according to W. G. Harker and B. I. Sikic, Cancer Res. 1985, p. 45, 4091. The cells were split and allowed to adhere overnight. […] The cells were maintained at this DOX concentration until their growth rate reached that of the untreated cells.

| SMILES | GI50 ([1]; MCF7, Table 1, 48 h treatment) [µM] | GI50 ([2]; Table 1, 48 h treatment) [µM] | GI50 ([1]; MCF7, Table 2, 48 h treatment) [µM] | GI50 ([2]; Table 2, 48 h treatment) [µM] | further results |
| --- | --- | --- | --- | --- | --- |
| O=C(NO)C(c1ccccc1)c1c(-c2ccccc2[N+](=O)[O-])[nH]c2ccccc12 (centres unmarked) [Compound 3aaba] | > 50 | > 50 | – | – | – |
| O=C(NO)C(c1ccccc1)c1c(-c2ccccc2)[nH]c2ccccc12 (centres unmarked) [Compound 3aaaa] | 31 ± 0.6 | 23 ± 2.6 | – | – | antiproliferative potency (GI50) [3]: double-digit micromolar |
| COc1ccc(-c2[nH]c3ccccc3c2C(C(=O)NO)c2ccccc2)cc1 (centres unmarked) [Compound 3aaca] | > 50 | > 50 | – | – | – |
| O=C(NO)C(c1ccc(F)cc1)c1c(-c2ccc3ccccc3c2)[nH]c2ccccc12 (centres unmarked) [Compound 3aafg] | – | – | 6.3 ± 1.1 | 18.2 ± 0.9 | – |
| O=C(NO)C(c1ccc(Cl)c(Cl)c1)c1c(-c2ccc3ccccc3c2)[nH]c2ccccc12 (centres unmarked) [Compound 3aafi] | – | – | 12.2 ± 1 | 31.7 ± 1.7 | – |
| O=C(NO)C(c1ccccc1Br)c1c(-c2ccc3ccccc3c2)[nH]c2ccccc12 (centres unmarked) [Compound 3aafd] | – | – | 2.7 | 13 ± 0.4 | – |
| CC(=O)O[C@H]1C(=O)[C@@]2(C)[C@H]([C@H](OC(=O)c3ccccc3)[C@]3(O)C[C@H](OC(=O)[C@H](O)[C@@H](NC(=O)c4ccccc4)c4ccccc4)C(C)=C1C3(C)C)[C@]1(OC(C)=O)CO[C@@H]1C[C@@H]2O [Taxol, reference compound] | – | – | – | – | cells whose proliferation is not affected, A549 [4]: ca. 50%; cells whose proliferation is not affected, U87 (U87 glioblastoma cells): ca. 50%; GI50 [5]: 0.007 ± 0.001 µM |
| O=C(NO)C(c1ccccc1Cl)c1c(-c2ccc3ccccc3c2)[nH]c2ccccc12 (centres unmarked) [Compound 3aafh] | – | – | 4.9 ± 0.1 | 31 ± 0.2 | – |
| O=C(NO)C(c1ccc(OC(F)(F)F)cc1)c1c(-c2ccc3ccccc3c2)[nH]c2ccccc12 (centres unmarked) [Compound 3aafj] | – | – | 10.2 ± 0.1 | 27.4 ± 0.2 | – |
| Cc1[nH]c2ccccc2c1C(C(=O)NO)c1ccccc1 (centres unmarked) [Compound 3aada] | > 50 | > 50 | – | – | – |
| O=C(NO)C(c1cccc(F)c1)c1c(-c2ccc3ccccc3c2)[nH]c2ccccc12 (centres unmarked) [Compound 3aafc] | – | – | 20.4 ± 0.1 | 32.9 ± 1.1 | – |
| O=C(NO)C(c1ccccc1)c1c(-c2cccc3ccccc23)[nH]c2ccccc12 (centres unmarked) [Compound 3aaea] | 32 ± 0.9 | 25.7 ± 1.6 | – | – | – |
| COc1ccc(C(C(=O)NO)c2c(-c3ccc4ccccc4c3)[nH]c3ccccc23)cc1OC (centres unmarked) [Compound 3aaff] | – | – | 2.4 ± 0.1 | 26.9 ± 0.3 | – |
| CC[C@]1(O)C[C@@H]2CN(CCc3c([nH]c4ccccc34)[C@@](C(=O)OC)(c3cc4c(cc3OC)N(C)[C@H]3[C@@](O)(C(=O)OC)[C@H](OC(C)=O)[C@]5(CC)C=CCN6CC[C@]43[C@@H]65)C2)C1 [Vinblastine, reference compound] | – | – | – | – | GI50 [5]: 0.006 ± 0.001 µM; GI50 ([6]; Homo sapiens, MES-SA/Dx5, 48 h treatment, MTT, ± SD, MDR line, read-out: GI50 in vitro, MES-SA/Dx5): 5 ± 1.4 µM; change in potency, MDR MES-SA/Dx5 versus parent MES-SA ([6]; MDR line compared with parent line): more than a thousand fold drop in potency |
| COc1ccc2[nH]c(-c3ccc4ccccc4c3)c(C(C(=O)NO)c3ccccc3)c2c1 (centres unmarked) [Compound 3acfa] | > 50 | > 50 | – | – | – |
| Cc1cccc(C(C(=O)NO)c2c(-c3ccc4ccccc4c3)[nH]c3ccccc23)c1 (centres unmarked) [Compound 3aafn] | – | – | 7.4 ± 0.6 | 6.9 ± 0.4 | antiproliferative potency (GI50) [3]: single-digit micromolar |
| Cc1ccc2[nH]c(-c3ccc4ccccc4c3)c(C(C(=O)NO)c3ccccc3)c2c1 (centres unmarked) [Compound 3abfa] | > 50 | > 50 | – | – | – |
| COc1cc([C@@H]2c3cc4c(cc3[C@H](O)[C@H]3COC(=O)[C@H]23)OCO4)cc(OC)c1OC [podophyllotoxin, reference compound] | – | – | – | – | cells whose proliferation is not affected, A549 [4]: ca. 50%; cells whose proliferation is not affected, U87 (U87 glioblastoma cells): ca. 50% |
| O=C(NO)C(c1ccc([N+](=O)[O-])cc1)c1c(-c2ccccc2)[nH]c2ccccc12 (centres unmarked) [Compound 3aaab] | > 50 | > 50 | – | – | – |

More lines, main results first:

| GI50 ([1]; MCF7, Table 1, 48 h treatment) [µM] | GI50 ([2]; Table 1, 48 h treatment) [µM] | GI50 ([1]; MCF7, Table 2, 48 h treatment) [µM] | GI50 ([2]; Table 2, 48 h treatment) [µM] | SMILES | further results |
| --- | --- | --- | --- | --- | --- |
| 11.2 ± 0.9 | 24 ± 0.2 | – | – | Cn1c(-c2ccc3ccccc3c2)c(C(C(=O)NO)c2ccccc2Br)c2ccccc21 (centres unmarked) [Compound 3bafd] | – |
| 10 ± 0.3 | 19.7 ± 1.7 | – | – | Cn1c(-c2ccc3ccccc3c2)c(C(C(=O)NO)c2ccccc2)c2ccccc21 (centres unmarked) [Compound 3bafa] | – |
| – | – | 7.7 ± 0.4 | 6.6 ± 0.5 | CCCCn1c(-c2ccc3ccccc3c2)c(C(C(=O)NO)c2ccc(C(C)C)cc2)c2ccccc21 (centres unmarked) [Compound 3cafe] | antiproliferative potency (GI50) [3]: single-digit micromolar |
| – | – | 4.9 ± 0.2 | 6.3 ± 1.3 | Cc1ccc(C(C(=O)NO)c2c(-c3ccc4ccccc4c3)[nH]c3ccccc23)cc1 (centres unmarked) [Compound 3aafm] | antiproliferative potency (GI50) [3]: single-digit micromolar |
| – | – | 9.3 ± 0.3 | 9.8 ± 0.8 | CCC(C)n1c(-c2ccc3ccccc3c2)c(C(C(=O)NO)c2ccccc2)c2ccccc21 (centres unmarked) [Compound 3dafa] | antiproliferative potency (GI50) [3]: single-digit micromolar |
| 25.7 ± 1.4 | 36.8 ± 0.4 | – | – | Cn1c(-c2ccc3ccccc3c2)c(C(C(=O)NO)c2cccc(F)c2)c2ccccc21 (centres unmarked) [Compound 3bafc] | – |
| – | – | 8.5 ± 0.3 | 17.3 ± 0.2 | CCOc1ccc(C(C(=O)NO)c2c(-c3ccc4ccccc4c3)[nH]c3ccccc23)cc1 (centres unmarked) [Compound 3aafl] | – |
| – | – | 7.9 ± 0.7 | 4.1 ± 0.2 | CCN(CC)c1ccc(C(C(=O)NO)c2c(-c3ccc4ccccc4c3)[nH]c3ccccc23)cc1 (centres unmarked) [Compound 3aafo] | antiproliferative potency (GI50) [3]: single-digit micromolar |
